Results taken from patent US7232835B2, “3,6-Disubstituted azabicyclo derivatives as muscarinic receptor antagonists” (Ranbaxy Laboratories Limited, priority 2002, dated 2007).
Like-named read-outs stand apart in the source and are kept apart here.

What was measured:
[1] = target: T1, M2 muscarinic receptor (Rattus norvegicus, UniProt P10980); assay: [3H]-N-methylscopolamine radioligand binding assay, rat heart membranes; settings: rat heart, [3H]NMS
T1 construct: Submandibular glands and heart were isolated and placed in ice cold homogenising buffer; from tissue; host or cells: rat heart membrane homogenate
T1 sequence (P10980 1-466): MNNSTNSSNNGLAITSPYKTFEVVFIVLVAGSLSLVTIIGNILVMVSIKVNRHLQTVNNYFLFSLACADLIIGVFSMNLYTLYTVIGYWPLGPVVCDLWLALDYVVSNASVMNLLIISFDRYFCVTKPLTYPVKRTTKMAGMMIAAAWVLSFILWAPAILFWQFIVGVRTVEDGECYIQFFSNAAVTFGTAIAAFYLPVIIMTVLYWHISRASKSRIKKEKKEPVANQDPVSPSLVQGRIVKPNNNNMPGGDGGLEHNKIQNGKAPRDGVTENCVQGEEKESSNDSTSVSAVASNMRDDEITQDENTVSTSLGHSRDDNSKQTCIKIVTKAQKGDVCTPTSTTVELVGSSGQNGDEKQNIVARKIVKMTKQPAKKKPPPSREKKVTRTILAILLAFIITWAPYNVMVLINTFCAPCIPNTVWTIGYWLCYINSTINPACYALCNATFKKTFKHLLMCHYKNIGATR

[2] = target: T2, M3 muscarinic receptor (Rattus norvegicus, UniProt P08483); assay: [3H]-N-methylscopolamine radioligand binding assay, rat submandibular gland membranes; set-up: Receptor Binding Assay Selectivity: reference not given here
T2 construct: Submandibular glands and heart were isolated and placed in ice cold homogenising buffer; from tissue; host or cells: rat submandibular gland membrane homogenate

[3] = system: isolated rat bladder; assay: tissue or blood; format: cell-based
[4] = Table III, read-out: M2 Ki (nm)
[5] = Table III, rat submandibular gland, [3H]NMS, read-out: M3 Ki (nm)
[6] = Table IV, read-out: Receptor Binding Assay (pKi) M2 (converted)
[7] = Table IV, rat submandibular gland, [3H]NMS, read-out: Receptor Binding Assay (pKi) M3 (converted)
[8] = Table II, rat bladder strips, antagonism of carbachol contraction, read-out: Functional Assay KB
[9] = Table III, rat bladder strips, antagonism of carbachol contraction, read-out: Rat Bladder pKB (converted)
[10] = Table III, rat submandibular gland, [3H]NMS

T2 sequence (P08483 whole entry): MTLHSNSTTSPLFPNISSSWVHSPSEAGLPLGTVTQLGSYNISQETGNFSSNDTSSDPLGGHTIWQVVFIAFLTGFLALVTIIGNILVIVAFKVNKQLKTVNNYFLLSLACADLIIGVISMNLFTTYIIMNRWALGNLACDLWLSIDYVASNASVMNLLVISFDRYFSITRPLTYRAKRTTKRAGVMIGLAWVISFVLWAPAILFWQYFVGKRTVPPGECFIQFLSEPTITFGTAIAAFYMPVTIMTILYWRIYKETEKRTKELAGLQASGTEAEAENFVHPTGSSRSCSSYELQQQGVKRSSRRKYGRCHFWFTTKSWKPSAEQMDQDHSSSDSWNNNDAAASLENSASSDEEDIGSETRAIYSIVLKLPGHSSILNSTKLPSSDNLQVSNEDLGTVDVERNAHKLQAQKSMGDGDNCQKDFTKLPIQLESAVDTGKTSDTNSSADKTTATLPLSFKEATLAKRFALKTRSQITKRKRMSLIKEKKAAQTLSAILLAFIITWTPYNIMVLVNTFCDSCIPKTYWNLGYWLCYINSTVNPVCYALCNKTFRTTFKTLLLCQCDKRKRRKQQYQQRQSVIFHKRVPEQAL

| SMILES | Ki [1, 4] [nM] | Ki [2, 5] [nM] | Ki [1, 6] [nM] | Ki [2, 7] [nM] | further results |
| --- | --- | --- | --- | --- | --- |
| O=C(NC1C2CN(CCc3ccc4occc4c3)CC21)C(O)(c1ccccc1)C1CCCCC1 (stereo not drawn) [Compound No. 31, (1α,5α,6α)-6-N-(3-azabicyclo[3.1.0]hexyl-3-(2-(benzofuran-5-yl)ethyl))-2-cyclohexyl-2-hydroxy-2-phenyl acetamide] | 1590 | 233 |  |  |  |
| O=C(N[C@H]1[C@@H]2CNC[C@@H]21)C(O)(c1ccccc1)C1CCC1 (stereo partly drawn) [Compound No. 91, (1α,5α,6α)-6-N-(3-azabicyclo[3.1.0]hexyl)-2-cyclobutyl-2-hydroxy-2-phenylacetamide] |  |  | 100000 | 2750 |  |
| O=C(NC1C2CN(CCc3ccc4c(c3)CCO4)CC21)C(O)(c1ccccc1)C1CCCCC1 (stereo not drawn) [Compound No. 28, (1α,5α,6α)-6-N-(3-azabicyclo[3.1.0]hexyl-3-(2-(2,3-dihydrobenzofuran-5-yl)ethyl))-2-cyclohexyl-2-hydroxy-2-phenyl acetamide] | > 1000 | 150 |  |  |  |
| CCN(CC)CC#CCOC(=O)C(O)(c1ccccc1)C1CCCCC1 (stereo not drawn) [Oxybutynin, oxybutynin, reference compound] |  |  |  |  | Kb [3, 8]: 2 nM |
| O=C(NC1C2CNCC21)C(O)(c1ccc(F)cc1)C1CCCCC1 (stereo not drawn) [Compound No. 86, (1α,5α,6α)-6-N-(3-azabicyclo-[3.1.0]hexyl)-2-cyclohexyl-2-hydroxy-2-(4-Fluorophenyl)acetamide] |  |  | > 1000 | > 1000 |  |
| COC(C(=O)NC1C2CNCC21)(c1ccccc1)C1CCCCC1 (stereo not drawn) [Compound No. 98, (1α,5α,6α)-6N-(3-azabicyclo-[3.1.0]hexyl)-2-cyclohexyl-2-methoxy-2-phenyl acetamide] |  |  | > 1000 | > 1000 |  |
| O=C(NC1C2CN(CCc3ccc4c(c3)OCO4)CC21)C(O)(c1ccccc1)C1CCCC1 (stereo not drawn) [Compound No. 66] | 182 |  |  |  | Ki ([1]; Table II, read-out: Receptor Binding Assay Ki (nM) M2): 237 nM; Ki ([1]; Table III, read-out: M2 pKi (converted)): 115 nM; Receptor Binding Assay Selectivity [2]: 12.88; Ki ([2]; M3 Ki (nm)): 18.4 nM; Ki ([2]; M3 Pki): 15.5 nM; Ki ([2]; Receptor Binding Assay Ki (nM) M 3): 18.4 nM; Kb [3, 8]: 5 nM; Kb [3, 9]: 3.24 nM |
| O=C(NC1C2CN(Cc3cc(F)cc(F)c3)CC21)C(O)(c1ccccc1)C1CCCCC1 (stereo not drawn) [Compound No. 23, (1α,5α,6α)-6-N-(3-azabicyclo[3.1.0]hexyl-3-(3,5-difluorobenzyl))-2-cyclohexyl-2-hydroxy-2-phenyl acetamide] | > 1000 | 530 |  |  | Kb [3, 9]: 2290 nM |
| O=C(N[C@H]1[C@@H]2CNC[C@@H]21)C(O)(c1ccccc1)C1CCCCC1 (stereo partly drawn) [Compound No. 85, (1α,5α,6α)-6-N-(3-azabicyclo[3.1.0]hexyl)-2-cyclohexyl-2-hydroxy-2-phenylacetamide] |  |  | > 1000 | > 1000 |  |
| Cc1ccc(O)c([C@H](CCN(C(C)C)C(C)C)c2ccccc2)c1 [Tolterodine, tolterodine, reference compound] |  |  |  |  | Kb ([3]; Rattus norvegicus, read-out: Functional Assay KB (nM)): 2 nM; Kb ([3]; Rattus norvegicus, read-out: Rat Bladder pKB (converted)): 1e+07 nM |
| O=C(NC1C2CN(CCc3ccc4c(c3)OCO4)CC21)C(O)(c1ccccc1)C1CCCCC1 (stereo not drawn) [Compound No. 29, (1α,5α,6α)-6-N-(3-azabicyclo[3.1.0]hexyl-3-(2-(3,4-methylenedioxyphenyl)ethyl))-2-cyclohexyl-2-hydroxy-2-phenyl acetamide] | > 1000 | 97 |  |  |  |
| CC(C)(C)OC(=O)N(CCCCOC(=O)C(O)(c1ccc(F)cc1)c1ccc(F)cc1)C1C2CNCC21 (stereo not drawn) [Compound No. 95, (1α,5α,6α)-4-[6-N-(3-azabicyclo[3.1.0]hexyl)]-N-(tert-butyloxycarbonyl)butyl-1-[2-hydroxy-2,2-bis-(4-fluorophenyl)]acetate] |  |  | > 1000 | > 1000 |  |
| Cc1ccc(C(O)(C(=O)N[C@H]2[C@@H]3CNC[C@@H]32)C2CCCCC2)cc1 (stereo partly drawn) [Compound No. 88, (1α,5α,6α)-6-N-(3-azabicyclo-[3.1.0]hexyl)-2-cyclohexyl-2-hydroxy-2-(4-methylphenyl)acetamide] |  |  | > 1000 | > 1000 |  |
| COc1ccc(C(O)(C(=O)NC2C3CNCC32)C2CCCCC2)cc1 (stereo not drawn) [Compound No. 87, (1α,5α,6α)-6-N-(3-azabicyclo-[3.1.0]hexyl)-2-cyclohexyl-2-hydroxy-2-(4-methyoxyphenyl)acetamide] |  |  | > 1000 | > 1000 |  |
| Cc1cccc(N2CC3C(C2)C3NC(=O)C(O)(c2ccccc2)C2CCCC2)n1 (stereo not drawn) [Compound No. 69] | > 10000 | 1420 |  |  | M2 pKi ([1]; Table III): <5; M3 Pki [2, 10]: 5.85 |
| CCCOC(C(=O)OCCCCN(C(=O)OC(C)(C)C)C1C2CNCC21)(c1ccc(F)cc1)c1ccc(F)cc1 (stereo not drawn) [Compound No. 96, (1α,5α,6α)-4-[6-N-(3-azabicyclo-[3.1.0]hexyl)]-N-(tert-butyloxycarbonyl)butyl-1-[2-propyloxy-2,2-bis-(4-fluorophenyl)]acetate] |  |  | > 1000 | > 1000 |  |
| O=C(N[C@H]1[C@@H]2CN(CCc3ccc4c(c3)CCO4)C[C@@H]21)C(O)(c1ccccc1)C1CCCC1 (stereo partly drawn) [Compound No. 68, (1α,5α,6α)-6-N-(3-azabicyclo[3.1.0]hexyl-3-(2-(2,3-dihydrobenzofuran-5-yl)ethyl))-2-cyclopentyl-2-hydroxy-2-phenyl acetamide] | > 1000 | 108 |  |  |  |
| O=C(N[C@H]1[C@@H]2CNC[C@@H]21)C(O)(c1ccccc1)C1CCCCCC1 (stereo partly drawn) [Compound No. 90, (1α,5α,6α)-6-N-(3-azabicyclo[3.1.0]hexyl)-2-cycloheptyl-2-hydroxy-2-phenylacetamide] |  |  | > 1000 | 363 |  |
| O=C(NC1C2CNCC21)C(O)(c1ccccc1)C1CCCC1 (stereo not drawn) [Compound No. 89, (1α,5α,6α)-6-N-(3-azabicyclo-[3.1.0]hexyl)-2-cyclopentyl-2-hydroxy-2-phenylacetamide] |  |  | > 1000 | > 1000 |  |
| O=C(N[C@H]1[C@@H]2CNC[C@@H]21)C(c1ccccc1)c1ccccc1 [Compound No. 97, (1α,5α,6α)-6N-(3-azabicyclo-[3.1.0]hexyl)-2,2-diphenyl acetamide] |  |  | > 1000 | > 1000 |  |
| O=C(Cc1ccc2c(c1)CCO2)N1CC2C(C1)C2NC(=O)C(O)(c1ccccc1)C1CCCC1 (stereo not drawn) [Compound No. 70, (1α,5α,6α)-6-N-(3-azabicyclo[3.1.0]hexyl-3-(1-(2,3-dihydrobenzofuran-5-yl)acetyl))-2-cyclopentyl-2-hydroxy-2-phenyl acetamide] | > 10000 | 750 |  |  | M2 pKi ([1]; Table III): <5; M3 Pki [2, 10]: 6.12 |
| O=C(Cc1ccc2c(c1)CCO2)N1CC2C(C1)C2NC(=O)C(O)(c1ccccc1)C1CCCCC1 (stereo not drawn) [Compound No. 30, (1α,5α,6α)-6-N-(3-azabicyclo[3.1.0]hexyl-3-(1-(2,3-dihydrobenzofuran-5-yl)acetyl))-2-cyclohexyl-2-hydroxy-2-phenyl acetamide] |  | 833 |  |  | M2 pKi ([1]; Table III): <5; M3 Pki [2, 10]: 6.08 |
| O=C(N[C@H]1[C@@H]2CNC[C@@H]21)C(O)(c1ccccc1)C1CC1 (stereo partly drawn) [Compound No. 92, (1α,5α,6α)-6-N-(3-azabicyclo-[3.1.0]hexyl)-2-cyclopropyl-2-hydroxy-2-phenylacetamide] |  |  | > 10000 | > 10000 |  |
| CC(C)(C)c1ccc(C(O)(C(=O)NC2C3CN(Cc4ccccc4)CC32)C2CCCCC2)cc1 (stereo not drawn) [Compound No. 55, (1α,5α,6α)-6-N-(3-azabicyclo[3.1.0]hexyl-3-benzyl)-2-cyclohexyl-2-hydroxy-2-(4-tertbutylphenyl)acetamide] | > 1000 | 380 |  |  |  |
